Data from the supplement of paper PMC10307832.

Experiments:
Experiment in all cases: relative viability (nuclei count vs DMSO), 5 days (fraction); higher = more cells survive
XMD13-2 + Linsitinib = compound: C1CC1C(=O)NC2=NNC3=C2C=CC(=C3)C4=CC(=CC=C4)C(=O)NC5CC5 [XMD13-2] + C[C@]1(O)C[C@@H](c2nc(-c3ccc4ccc(-c5ccccc5)nc4c3)c3c(N)nccn32)C1 [Linsitinib] (partner 1 µM)
Outline: (§1)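 For relative viability, nuclei counts in treated wells were divided by those in vehicle wells. Lung cancer cell lines had been pin-tool dosed in 1536-well plates the day after seeding and cultured for 5 days, then fixed and stained in one step (final 0.05% Triton X-100, 1% formaldehyde, 1 ug/ml Hoechst) and imaged at 4×. Doses were one drug alone or a fixed anchor-drug dose plus five library-drug doses (not always all listed) in √10 steps, and values are duplicate-plate medians.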

ALW-II-49-7 + Trametinib = compound: Cc1ccc(C(=O)Nc2cccc(C(F)(F)F)c2)cc1Nc1cncc(C(N)=O)c1 [ALW-II-49-7] + CC(=O)Nc1cccc(-n2c(=O)n(C3CC3)c(=O)c3c(Nc4ccc(I)cc4F)n(C)c(=O)c(C)c32)c1 [Trametinib] (partner 0.02 µM)
Outline: as §1

Dasatinib + Navitoclax = compound: Cc1nc(Nc2ncc(C(=O)Nc3c(C)cccc3Cl)s2)cc(N2CCN(CCO)CC2)n1 [Dasatinib] + CC1(C)CCC(c2ccc(Cl)cc2)=C(CN2CCN(c3ccc(C(=O)NS(=O)(=O)c4ccc(N[C@H](CCN5CCOCC5)CSc5ccccc5)c(S(=O)(=O)C(F)(F)F)c4)cc3)CC2)C1 [Navitoclax] (partner 0.5 µM)
Outline: as §1

XMD13-2 + AZD7762 = compound: C1CC1C(=O)NC2=NNC3=C2C=CC(=C3)C4=CC(=CC=C4)C(=O)NC5CC5 [XMD13-2] + NC(=O)Nc1cc(-c2cccc(F)c2)sc1C(=O)N[C@H]1CCCNC1 [AZD7762] (partner 0.2 µM)
Outline: as §1

Cell Line	relative viability (XMD13-2 + Linsitinib; first compound 0.05 µM)	relative viability (XMD13-2 + Linsitinib; first compound 0.1581 µM)	relative viability (XMD13-2 + Linsitinib; first compound 0.5 µM)	relative viability (XMD13-2 + Linsitinib; first compound 1.581 µM)	relative viability (XMD13-2 + Linsitinib; first compound 5 µM)	relative viability (ALW-II-49-7 + Trametinib; first compound 0.08 µM)	relative viability (ALW-II-49-7 + Trametinib; first compound 0.253 µM)	relative viability (ALW-II-49-7 + Trametinib; first compound 0.8 µM)	relative viability (ALW-II-49-7 + Trametinib; first compound 2.53 µM)	relative viability (ALW-II-49-7 + Trametinib; first compound 8 µM)	relative viability (Dasatinib + Navitoclax; first compound 0.005 µM)	relative viability (Dasatinib + Navitoclax; first compound 0.01581 µM)	relative viability (Dasatinib + Navitoclax; first compound 0.05 µM)	relative viability (Dasatinib + Navitoclax; first compound 0.1581 µM)	relative viability (Dasatinib + Navitoclax; first compound 0.5 µM)	relative viability (XMD13-2 + AZD7762; first compound 0.05 µM)	relative viability (XMD13-2 + AZD7762; first compound 0.1581 µM)	relative viability (XMD13-2 + AZD7762; first compound 0.5 µM)	relative viability (XMD13-2 + AZD7762; first compound 1.581 µM)	relative viability (XMD13-2 + AZD7762; first compound 5 µM)
NCI-H727	0.219	0.25	0.439	0.312	0.25	0.393	0.378	0.354	0.357	0.365	0.404	0.266	0.186	0.139	0.143	0.807	0.665	0.583	0.505	0.776
NCI-H358	0.759	0.764	0.826	0.663	0.449	0.117	0.123	0.142	0.14	0.119						0.633	0.537	0.515	0.442	0.414
NCI-H1437	1.25	1.09	1.08	1.04	1.06	0.486	0.573	0.332	0.512	0.509	1.09	1.05	1.09	0.999	0.432	1.24	1.14	1.18	1.09	1.17
NCI-H441	0.771	0.415	0.558	0.64	0.398	0.41	0.494	0.381	0.69	0.443	0.579	0.544	0.456	0.241	0.135	1.17	1.29	1.18	1.14	1.04
EMC-BAC-2	0.912	0.82	0.841	0.848	0.689	0.966	0.92	0.998	0.857	0.755	1.13	0.939	0.936	0.548	0.28	1.34	1.16	1.06	0.984	0.864
NCI-H647	1.33	1.22	1.15	1.17	1.09	0.434	0.475	0.453	0.441	0.239	0.983	0.731	0.392	0.307	0.152	0.558	0.521	0.532	0.406	0.248
CAL-12T	0.802	0.764	0.837	0.68	0.843	0.294	0.336	0.346	0.307	0.288	1.36	1.17	1.49	1.35	0.97	0.625	0.708	0.583	0.563	0.933
NCI-H1792	0.631	0.519	0.586	0.661	0.515	0.583	0.436	0.42	0.369	0.471	0.627	0.606	0.541	0.402	0.296	0.854	0.78	0.762	0.634	0.846
H3255	1.12	1	0.946	0.97	0.94	0.856	0.52	0.681	0.62	0.455	0.542	0.527	0.388	0.187	0.115	0.949	1.09	0.829	0.847	0.855
HCC-78	0.696	0.587	0.603	0.548	0.461	0.867	0.702	0.633	0.572	0.78	0.619	0.58	0.688	0.601	0.247	0.763	0.973	0.557	0.475	0.705
EBC-1	0.889	0.966	1.08	0.874	0.766						0.477	0.289	0.314	0.25	0.283					
NCI-H2405	0.936	0.975	0.958	0.939	1.03	0.662	0.699	0.637	0.47	0.467	0.684	0.424	0.254	0.165	0.116	0.849	0.712	0.728		0.8
A549	0.856	0.513	0.579	0.677	0.674						1.27	1.2	1.27	1.06	0.443					
NCI-H3122	1.02	1.01	1.04	1.06	0.951	0.243	0.235	0.292	0.311	0.222	1.03	1.01	1.04	0.977	0.792	1.01	0.973	1.1	1	0.899
NCI-H1563	1.22	1.27	1.16	1.12	1.31															
HCC-44	0.683	0.694	0.697	0.704	0.773	1.08	0.994	1.03	1.09	1.26	0.93	0.916	0.98	0.761	0.436	0.944	0.98	0.969	1.05	1.02
PC-3 [JPC-3]	0.915	0.961	1.01	0.906	1.01	0.676	0.786	0.745	0.809	0.847	0.785	0.818	0.951	0.788	0.456	0.818	0.868	0.9		0.718
NCI-H1993	0.807	0.78	0.731	0.743	0.694	0.583	0.481	0.648	0.608	0.445	0.872	0.7	0.724	0.581	0.736	0.926	0.595	0.387	0.63	0.791
